# Measurements as given in publication PMC9516332 (Frontiers in Oncology, 2022).
# Where two headings read alike, the source gives them in different places.
# Tests used:
# [1] = tested on: AP-1060 (ETV6-NTRK3); assay: Cell viability assay; details: read-out: IC50 in cell proliferation assay
# [2] = biological target: panel of 255 wild-type kinases (Homo sapiens, UniProt Q96RG2); assay: Kinase panel profiling at 1 µmol/L (MSA or IMAP), percentage inhibition; format: biochemical; details: PASK; 1 µmol/L single concentration; read-out: %-inhibition, PASK
# [3] = biological target: panel of 255 wild-type kinases (Homo sapiens, UniProt O75582); assay: as above; format: biochemical; details: MSK1; 1 µmol/L single concentration; read-out: %-inhibition, MSK1
# [4] = biological target: panel of 255 wild-type kinases (Homo sapiens, UniProt Q00526); assay: as above; format: biochemical; details: CDK3/CycE1 kinase assay; 1 µmol/L single concentration; read-out: %-inhibition CDK3/CycE1
# [5] = biological target: panel of 255 wild-type kinases (Homo sapiens, UniProt Q13177); assay: as above; format: biochemical; details: PAK2; 1 µmol/L single concentration; read-out: %-inhibition, PAK2
# [6] = biological target: panel of 255 wild-type kinases (Homo sapiens, UniProt Q9HBH9); assay: as above; format: biochemical; details: MNK2; 1 µmol/L single concentration; read-out: %-inhibition, MNK2
# [7] = biological target: panel of 255 wild-type kinases (Homo sapiens, UniProt P50613); assay: as above; format: biochemical; details: CDK7/CycH/MAT1 kinase assay; 1 µmol/L single concentration; read-out: %-inhibition CDK7/CycH/MAT1
# [8] = biological target: panel of 255 wild-type kinases (Homo sapiens, UniProt P22607); assay: as above; format: biochemical; details: kinase FGFR3; 1 µmol/L single concentration; read-out: %-inhibition at 1 µmol/L, FGFR3
# [9] = biological target: panel of 255 wild-type kinases (Homo sapiens, UniProt P45983); assay: as above; format: biochemical; details: kinase JNK1; 1 µmol/L single concentration; read-out: %-inhibition at 1 µmol/L, JNK1
# [10] = biological target: panel of 255 wild-type kinases (Homo sapiens, UniProt P49760); assay: as above; format: biochemical; details: kinase CLK2; 1 µmol/L single concentration; read-out: %-inhibition at 1 µmol/L, CLK2
# [11] = tested on: 134 cancer cell lines; assay: Cell viability assay (ATPlite, 72 hours), IC50 on cancer cell line panel
smiles,measurement,setting,value
Cn1cnc2c(F)c(Nc3ccc(Br)cc3Cl)c(C(=O)NOCCO)cc21 [selumetinib],IC50,[1],> 31600 nM
same,inhibition at 1 µM,[2],-2%
same,inhibition at 1 µM,[3],3%
same,inhibition at 1 µM,[4],-9%
same,inhibition at 1 µM,[5],-3.7%
same,inhibition at 1 µM,[6],-0.47%
same,inhibition at 1 µM,[7],1.7%
same,inhibition at 1 µM,[8],2.76%
same,inhibition at 1 µM,[9],-4.74%
same,inhibition at 1 µM,[10],7%
same,IC50,"[11]; HEC-6, read-out: IC50 in cell proliferation assay, HEC-6 cell line (EGFR p.A289V)",> 31600 nM
same,IC50,"[11]; Homo sapiens, 769-P, read-out: IC50 in cell proliferation assay, cell line 769-P",665 nM
same,IC50,"[11]; Homo sapiens, 786-0, read-out: IC50 in cell proliferation assay, cell line 786-O",> 31600 nM
same,IC50,"[11]; Homo sapiens, A 172, read-out: IC50 in cell proliferation assay, cell line A-172",25300 nM
same,IC50,"[11]; Homo sapiens, A204, read-out: IC50 in cell proliferation assay, cell line A-204",> 31600 nM
same,IC50,"[11]; Homo sapiens, A498, read-out: IC50 in cell proliferation assay, cell line A-498",137 nM
same,IC50,"[11]; Homo sapiens, A549, read-out: IC50 in cell proliferation assay, cell line A-549",132 nM
same,IC50,"[11]; Homo sapiens, A704, read-out: IC50 in cell proliferation assay, cell line A-704",> 31600 nM
same,IC50,"[11]; Homo sapiens, A-375, read-out: IC50 in cell proliferation assay, cell line A-375 (BRAF p.V600E)",145 nM
same,IC50,"[11]; Homo sapiens, A-427, read-out: IC50 in cell proliferation assay, cell line A-427",1340 nM
same,IC50,"[11]; Homo sapiens, ACHN, read-out: IC50 in cell proliferation assay, cell line ACHN",14400 nM
same,IC50,"[11]; Homo sapiens, AN3-CA, read-out: IC50 in cell proliferation assay, cell line AN3-CA (FGFR2 p.N549K)",2330 nM
same,IC50,"[11]; Homo sapiens, ASPC1, read-out: IC50 in cell proliferation assay, cell line AsPC-1",210 nM
same,IC50,"[11]; Homo sapiens, AU565, read-out: IC50 in cell proliferation assay, cell line AU565 (ERBB2 amplification)",> 31600 nM
same,IC50,"[11]; Homo sapiens, BT-20, read-out: IC50 in cell proliferation assay, cell line BT-20",9260 nM
same,IC50,"[11]; Homo sapiens, BT-474, read-out: IC50 in cell proliferation assay, cell line BT-474 (ERBB2 amplification)",> 31600 nM
same,IC50,"[11]; Homo sapiens, BT-549, read-out: IC50 in cell proliferation assay, cell line BT-549",> 31600 nM
same,IC50,"[11]; Homo sapiens, BXPC-3, read-out: IC50 in cell proliferation assay, cell line BxPC-3",472 nM
same,IC50,"[11]; Homo sapiens, C-33-A, read-out: IC50 in cell proliferation assay, cell line C-33 A",2.72 nM
same,IC50,"[11]; Homo sapiens, CAL-27, read-out: IC50 in cell proliferation assay, cell line CAL-27",61 nM
same,IC50,"[11]; Homo sapiens, CCF-STTG1, read-out: IC50 in cell proliferation assay, cell line CCF-STTG1",> 31600 nM
same,IC50,"[11]; Homo sapiens, CCRF-CEM, read-out: IC50 in cell proliferation assay, cell line CCRF-CEM",> 31600 nM
same,IC50,"[11]; Homo sapiens, COLO 205, read-out: IC50 in cell proliferation assay, cell line COLO 205 (BRAF p.V600E)",38 nM
same,IC50,"[11]; Homo sapiens, COLO-829, read-out: IC50 in cell proliferation assay, cell line COLO 829 (BRAF p.V600E)",117 nM
same,IC50,"[11]; Homo sapiens, DLD-1, read-out: IC50 in cell proliferation assay, cell line DLD-1",21400 nM
same,IC50,"[11]; Homo sapiens, DU-4475, read-out: IC50 in cell proliferation assay, cell line DU4475 (BRAF p.V600E)",88 nM
same,IC50,"[11]; Homo sapiens, Daoy, read-out: IC50 in cell proliferation assay, cell line Daoy",> 31600 nM
same,IC50,"[11]; Homo sapiens, DoTc2-4510, read-out: IC50 in cell proliferation assay, cell line DoTc2 4510",32 nM
same,IC50,"[11]; Homo sapiens, EOL1, read-out: IC50 in cell proliferation assay, cell line EoL-1 (FIP1L1-PDGFRA)",92 nM
same,IC50,"[11]; Homo sapiens, FaDu, read-out: IC50 in cell proliferation assay, cell line FaDu",73 nM
same,IC50,"[11]; Homo sapiens, G-361, read-out: IC50 in cell proliferation assay, cell line G-361 (BRAF p.V600E)",225 nM
same,IC50,"[11]; Homo sapiens, HCC827, read-out: IC50 in cell proliferation assay, cell line HCC827 (EGFR exon19del)",9710 nM
same,IC50,"[11]; Homo sapiens, HCC4006, read-out: IC50 in cell proliferation assay, cell line HCC4006 (EGFR exon19del)",26800 nM
same,IC50,"[11]; Homo sapiens, HCT-15, read-out: IC50 in cell proliferation assay, cell line HCT 15",> 31600 nM
same,IC50,"[11]; Homo sapiens, HCT-116, read-out: IC50 in cell proliferation assay, cell line HCT 116",2.26 nM
same,IC50,"[11]; Homo sapiens, HEC-1, read-out: IC50 in cell proliferation assay, HEC-1 cell line",> 31600 nM
same,IC50,"[11]; Homo sapiens, HEC-1B, read-out: IC50 in cell proliferation assay, HEC-1-B cell line (EGFR p.A864V)",27 nM
same,IC50,"[11]; Homo sapiens, HL-60, read-out: IC50 in cell proliferation assay, HL-60 cell line",13 nM
same,IC50,"[11]; Homo sapiens, HT, read-out: IC50 in cell proliferation assay, HT cell line",14800 nM
same,IC50,"[11]; Homo sapiens, HT-1080, read-out: IC50 in cell proliferation assay, HT-1080 cell line",132 nM
same,IC50,"[11]; Homo sapiens, Hs746T, read-out: IC50 in cell proliferation assay, Hs 746.T cell line (MET exon14skip + amplification)",19400 nM
same,IC50,"[11]; Homo sapiens, Hs-578T, read-out: IC50 in cell proliferation assay, Hs 578T cell line",78 nM
same,IC50,"[11]; Homo sapiens, HuTu80, read-out: IC50 in cell proliferation assay, HuTu 80 cell line",413 nM
same,IC50,"[11]; Homo sapiens, J82, read-out: IC50 in cell proliferation assay, J82 cell line",265 nM
same,IC50,"[11]; Homo sapiens, Jurkat E6.1, read-out: IC50 in cell proliferation assay, Jurkat E6.1 cell line",> 31600 nM
same,IC50,"[11]; Homo sapiens, K562, read-out: IC50 in cell proliferation assay, K-562 cell line",241 nM
same,IC50,"[11]; Homo sapiens, KATO III, read-out: IC50 in cell proliferation assay, KATO III cell line (FGFR2 amplification)",16500 nM
same,IC50,"[11]; Homo sapiens, KG-1, read-out: IC50 in cell proliferation assay, KG-1 cell line (FGFR1OP2-FGFR1)",10 nM
same,IC50,"[11]; Homo sapiens, KLE, read-out: IC50 in cell proliferation assay, KLE cell line",> 31600 nM
same,IC50,"[11]; Homo sapiens, KMS-11, read-out: IC50 in cell proliferation assay, KMS-11 cell line (FGFR3 p.Y373C)",> 31600 nM
same,IC50,"[11]; Homo sapiens, KU812, read-out: IC50 in cell proliferation assay, Ku812 cell line",73 nM
same,IC50,"[11]; Homo sapiens, Kasumi 1, read-out: IC50 in cell proliferation assay, Kasumi-1 cell line (KIT p.N822K)",345 nM
same,IC50,"[11]; Homo sapiens, LC-2-ad, read-out: IC50 in cell proliferation assay, LC-2/ad cell line (CCDC6-RET)",31000 nM
same,IC50,"[11]; Homo sapiens, LNCaP-Clone-FGC, read-out: IC50 in cell proliferation assay, LNCaP clone FGC cell line",> 31600 nM
same,IC50,"[11]; Homo sapiens, LS174T, read-out: IC50 in cell proliferation assay, LS174T cell line",177 nM
same,IC50,"[11]; Homo sapiens, LS-411N, read-out: IC50 in cell proliferation assay, LS411N cell line (BRAF p.V600E)",75 nM
same,IC50,"[11]; Homo sapiens, LoVo, read-out: IC50 in cell proliferation assay, LoVo cell line",34 nM
same,IC50,"[11]; Homo sapiens, MCF7, read-out: IC50 in cell proliferation assay, MCF-7 cell line",> 31600 nM
same,IC50,"[11]; Homo sapiens, MDA-MB-231, read-out: IC50 in cell proliferation assay, MDA-MB-231 cell line",1000 nM
same,IC50,"[11]; Homo sapiens, MDA-MB-453, read-out: IC50 in cell proliferation assay, MDA-MB-453 cell line",9170 nM
same,IC50,"[11]; Homo sapiens, MDA-MB-468, read-out: IC50 in cell proliferation assay, MDA-MB-468 cell line",> 31600 nM
